Results taken from patent publication US8273404B2, “Extraction of solvents from drug containing polymer reservoirs” (Cordis Corporation, priority 2008, dated 2012).

Tests used:
[1] = type: physicochemical; conditions: 0.02 weight percent BHT per total basecoat solids
Description: Referring to FIG. 113, there is illustrated in graphical format, the results of the same drug screening as described above with the solution applied to a cobalt-chromium, 18 mm stent. In this test, two sets of solution samples were utilized, one with sirolimus and polymer solution containing the antioxidant and one with sirolimus and polymer solution containing no antioxidant. The antioxidant utilized was 0.02 weight percent BHT per total basecoat solids. The test was utilized to determine the percent drug content change over a time period of 0 to 12 weeks under two conditions; namely, 40° C. with 75 percent relative humidity, and ambient conditions (25° C.).

LDL = assay: Ex vivo LDL peroxidation (diene conjugates after addition of copper ions) of MVP patients; set-up: species or system human; conditions: treatment for one month, preliminary results
Description: Dietary intervention and smoking habits were similar in all groups. Probucol may simply be a more powerful antioxidant than the combination of vitamins. To this regard, preliminary results from the continuous spectrophotometric monitoring of diene conjugates in LDL after the addition of copper ions to the isolated lipoprotein ex vivo (Free Radic Res Commun 1989; 6:67-75) of MVP patients are noteworthy.

[2] = test system: coronary arteries after balloon angioplasty; assay: IVUS substudy of the MVP restenosis trial (lumen, wall, EEM areas after balloon angioplasty); type: in vivo, human
Procedure: The present invention concerns the IVUS substudy from the MVP restenosis trial. MVP was a double-blind placebo-controlled randomized clinical trial with four study groups. The protocol was approved by the Montreal Heart Institute institutional review board. The MVP study design, inclusion and exclusion criteria have been previously described (N Engl J Med 1997; 365-372). Briefly, patients referred for elective coronary angioplasty were evaluated at least 30 days prior to their scheduled procedure. Eligible patients were asked to provide written informed consent. Patients were eligible if they were scheduled to undergo standard balloon angioplasty on at least one native coronary artery and had at least one de novo target lesion with luminal narrowing of fifty percent or more by caliper measurements.
Beginning thirty days prior to scheduled angioplasty, patients were randomly assigned to receive either probucol alone, multivitamins alone, the combination of probucol and multivitamins, or placebo. Probucol 500 mg or matched placebo was administered twice daily. The multivitamin complex, consisting of vitamin E 700 IU, vitamin C 500 mg and beta-carotene 30,000 IU, or matched placebo was also administered in one tablet twice daily. All patients received an extra dose of probucol 1000 mg and/or vitamin E 2000 IU and/or matched placebos twelve hours before angioplasty, according to randomization assignment. […] All patients received aspirin 325 mg daily started at least thirty days before procedure and continued for the study period. Balloon angioplasty was performed according to standard techniques. Intracoronary nitroglycerin (0.3 mg) was given for each target artery for both pre- and post-dilatation angiography and at follow-up. The sequence of contrast injections with the exact degree of angulation was recorded and used for every angiogram. Coronary arteriograms (pre-, post-procedure, and final follow-up) were analyzed together using the Coronary Measurement System (CMS), as previously reported. Patient follow-up included clinical evaluation, exercise treadmill testing, blood chemistry, pill count and drug level measurements, and dietary assessment and intervention. Patients were readmitted for follow-up coronary angiography at five to seven months. […]
IVUS examinations were performed using 30 MHZ, 3.5 French mechanical (1800 rpm) ultrasound catheters (Boston Scientific, Natick, Mass.) and a dedicated imaging console (Hewlett Packard, Andover, Mass.) (Curr Opin Cardiol 1994; 9:627-633). […] IVUS imaging was monitored by an experienced cardiologist, but the angioplasty operator was blinded to ultrasound results to avoid altering standard balloon angioplasty practice. […] One angiographic view was recorded on videotape before beginning pullback of the IVUS catheter. […]

[3] = test system: coronary restenosis after angioplasty; assay: MultiVitamins and Probucol (MVP) randomized clinical trial, angiographic and clinical endpoints; type: in vivo, human
Description: It was not possible to determine with angiography alone whether probucol acted via inhibition of tissue hyperplasia or improvement in vascular remodeling. […] In addition, the invention enables the skilled practitioner to use probucol in conjunction with other percutaneous coronary interventions such as stenting if it is deemed appropriate.
Beginning thirty days prior to scheduled angioplasty, patients were randomly assigned to receive either probucol alone, multivitamins alone, the combination of probucol and multivitamins, or placebo. Probucol 500 mg or matched placebo was administered twice daily. The multivitamin complex, consisting of vitamin E 700 IU, vitamin C 500 mg and beta-carotene 30,000 IU, or matched placebo was also administered in one tablet twice daily. All patients received an extra dose of probucol 1000 mg and/or vitamin E 2000 IU and/or matched placebos twelve hours before angioplasty, according to randomization assignment. […] All patients received aspirin 325 mg daily started at least thirty days before procedure and continued for the study period. Balloon angioplasty was performed according to standard techniques. Intracoronary nitroglycerin (0.3 mg) was given for each target artery for both pre- and post-dilatation angiography and at follow-up. The sequence of contrast injections with the exact degree of angulation was recorded and used for every angiogram. Coronary arteriograms (pre-, post-procedure, and final follow-up) were analyzed together using the Coronary Measurement System (CMS), as previously reported. Patient follow-up included clinical evaluation, exercise treadmill testing, blood chemistry, pill count and drug level measurements, and dietary assessment and intervention. Patients were readmitted for follow-up coronary angiography at five to seven months. Patients in whom arteriography was performed for clinical reasons before the fifth month returned for repeat angiographic examination at five to seven months if no definite angiographic restenosis was present on at least one dilated site. During follow-up, patients with recurrence or exacerbation of anginal symptoms were treated with medical therapy or revascularization procedures (reangioplasty or Coronary Bypass Surgery) as clinically indicated. Patients with angiographic restenosis (lesion>50%. at follow-up) without clinical evidence of ischemia were not subjected to further interventional procedures.
Probucol is one of the first pharmacological interventions shown to prevent coronary restenosis after balloon angioplasty. However, its mechanism of action and its efficacy as a vascular remodeling agent has never been studied. […]

Row | SMILES | effect on sirolimus drug degradation on coated stent [1] | protection against LDL oxidation (lag phase for LDL peroxidation) (LDL) | reduction in lumen loss compared to non-probucol treated patients ([2]; IVUS, patients receiving probucol) | Lumen area, Follow-up Post PTCA (change) ([2]; IVUS, per segment analysis) | reduction in lumen loss compared to the placebo group only ([2]; IVUS, probucol given alone) | Lumen area, Follow-up Post PTCA (change) ([2]; efficacy analysis in compliant patients) | patients in whom restenosis still occurred ([3]; probucol alone) | reduction of angiographic lumen loss compared to placebo ([3]; probucol given alone) | reduction of restenosis rate per segment compared to placebo ([3]; probucol given alone) | reduction of the need for repeat angioplasty at 6 month compared to placebo ([3]; probucol given alone)
1 | Cc1cc(C(C)(C)C)c(O)c(C(C)(C)C)c1 [BHT, Butylated Hydroxytoluene] | lessens drug degradation at both 8 weeks and 12 weeks |  |  |  |  |  |  |  |  | 
2 | CC(C)(Sc1cc(C(C)(C)C)c(O)c(C(C)(C)C)c1)Sc1cc(C(C)(C)C)c(O)c(C(C)(C)C)c1 [Probucol Alone, 4,4′-([1-methylethylidene)bis(thio)]bis-[2,6-bis(1,1-dimethylethyl)phenol]] |  | significantly greater protection against LDL oxidation than vitamins alone or the combination of probucol and vitamins | 0.79 mm^2 | −0.15 ± 1.70 mm^2 | 1.06 mm^2 | −0.15 ± 1.70 mm^2 | over twenty percent | sixty-eight percent | forty-seven percent | fifty-eight percent
